Measurements reported in US8618147B2, “Modified macrophage migration inhibitory factor inhibitors” (The Feinstein Institute for Medical Research, priority 2006, dated 2013).
Entries after “also recorded” stand apart in the source; their conditions may differ.

Assays:
[1] = target: MIF (Homo sapiens (Human), UniProt P14174); assay: MIF dopachrome tautomerase assay; format: biochemical; settings: (S)-isomer relative to (R)-isomer
Description: MIF tautomerase activity was measured by UV-Visible recording spectrophotometry (SHIMADZU, UV1600U). A fresh stock solution of L-dopachrome methyl ester was prepared at 2.4 mM through oxidation of L-3,4-dihydroxyphenylalanine methyl ester with sodium periodate. 1 μL of MIF solution (800-900 ng/mL) and 1 μL of a DMSO solution with various concentrations of the enzymatic inhibitor were added into a plastic cuvette (10 mm, 1.5 mL) containing 0.7 mL assay buffer (50 mM potassium phosphate, pH 7.2). Then L-dopachrome methyl ester solution (0.3 mL) was added to the assay buffer mixture. Activity was determined at room temperature and the spectrometric measurements were made at λ=475 nm for 20 seconds by monitoring the rate of decolorization of L-dopachrome methyl ester in comparison to a standard solution.

[2] = versus 40% control; cited from earlier work
[3] = tested on: rheumatoid arthritis fibroblast-like synoviocytes (RA-FLS); assay: Cell invasion through Matrigel Invasion Chambers; format: cell-based; settings: 100 nM ISO-63 or 25 μM ISO-1, one day treatment, 24 hours incubation
Description: Invasion was assayed by measuring cell invasion through Matrigel Invasion Chambers (Becton Dickinson, Mass.). […] 500 μl of whole medium containing 10% FBS and 10% human serum and was added to the bottom chamber. After 24 hours of incubation at 37° C., cells on the upper surface of the filter were wiped off with a Q-tip and the filter was fixed in 4% formaldehyde/PBS. After staining with crystal violet, migrated cells were counted using an inverted microscope.

[4] = tested on: leukocyte recruitment; assay: Air pouch carrageenan model of acute inflammation, leukocyte recruitment; format: in vivo, Swiss Webster male mice; settings: 40 mg/kg single i.p., 15 min before 1% carrageenan into air pouch, 5 hr after carrageenan
Description: Air pouches were made according to standard procedures (Garcia-Ramallo et al., 2002) on Swiss Webster male mice (25-30 g) by injecting sterile air s.c. on day 0 (6 ml) and day 3 (3 ml). […] After 15 min, the animals were challenged by injecting 1 ml 1% carrageenan (in PBS) into the air pouch cavity. Five hr after carrageenan injection the animals were sacrificed, the pouches washed with PBS, exudate collected, and the total number of infiltrating cells quantitated.

MIF, sequence (P14174 2-115): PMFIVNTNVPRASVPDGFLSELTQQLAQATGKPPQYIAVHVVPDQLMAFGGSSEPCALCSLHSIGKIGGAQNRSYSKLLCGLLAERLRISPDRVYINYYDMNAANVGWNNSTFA

With `COC(=O)C[C@@H]1CC(c2ccc(O)cc2)=NO1` [(S)-ISO-1] the “less active than the (R)-isomer” value [1] was 50%.

For `COC(=O)C[C@@H]1CC(c2ccc(O)cc2)=NO1` (racemic) [ISO-1, (S,R)-3-(4-hydroxyphenyl)-4,5-dihydro-5-isoxazole acetic acid methyl ester, reference compound], the “protection in sepsis model” value [2] is given as 80%.

In the case of `CC(C)C(OC(=O)CC1CC(c2ccc(O)c(F)c2)=NO1)C(C)C` (stereo not shown) [ISO-63], the “invasion of RA-FLS into Matrigel (migrated cells)” value [3] is reported as “inhibits the invasion; also recorded: reduced cell invasion to a much greater extent than the ISO-1 treatment” and the “leukocyte recruitment (total number of infiltrating cells)” value [4] is reported as “inhibits leukocyte recruitment; also recorded: caused a significant reduction in leukocyte recruitment”.
